Where two headings read alike, the source gives them in different places.
How the values were obtained:
[1] = test system: patients with endometriosis; conditions: for Changes in average NRS for pelvic pain (regardless of menstruation) between the pre-treatment period and the time of final assessment during the treatment period: oral once a day for 8 weeks
Method: Clinical Trial 2 in Patients with Endometriosis (Randomized Non Blind Parallel-Group Comparison Study)
To 21 patients with endometriosis, Compound 2 was administered orally at a dose of 75 mg (11 patients) or 150 mg (10 patients) after breakfast once a day for 8 weeks. These groups are hereinafter referred to as a 75-mg administration group and a 150-mg administration group. The administration was started from the second to fifth days of menstruation.

[2] = test system: patients with endometriosis; conditions: for Changes in average NRS for pelvic pain (regardless of menstruation) between the pre-treatment period and the time of the final assessment during treatment: oral once a day for 12 weeks
Method: Clinical Trial 1 in Patients with Endometriosis (Double-Blind Parallel-Group Comparison Study)
To 107 patients with endometriosis, Compound 2 at a dose of 50 mg (29 patients), 100 mg (26 patients) or 200 mg (28 patients) or a placebo (24 patients) was orally administered after breakfast once a day for 12 weeks. These groups are hereinafter referred to as a 50-mg administration group, a 100-mg administration group, a 200-mg administration group, and a placebo group. The administration was started from the second to fifth days of menstruation.
As evaluation scales for safety, for example, the occurrence of an adverse event, the occurrence of a side effect, and vaginal bleeding were evaluated.

[3] = long-term study; cited from earlier work

## 3-[2-fluoro-5-(2,3-difluoro-6-methoxybenzyloxy)-4-methoxyphenyl]-2,4-dioxo-1,2,3,4-tetrahydrothieno[3,4-d]pyrimidine-5-carboxylic acid choline salt [Compound 2]
[1]; 75-mg administration group
  Changes in average NRS for pelvic pain (regardless of menstruation) between the pre-treatment period and the time of final assessment during the treatment period: −0.94
[1]; 75-mg administration group, week 4
  Median E2 concentrations during treatment: 35 pg/mL
[1]; 75-mg administration group, week 8
  Median E2 concentrations during treatment: 24 pg/mL
[1]; 150-mg administration group
  Changes in average NRS for pelvic pain (regardless of menstruation) between the pre-treatment period and the time of final assessment during the treatment period: −1.68
[1]; 150-mg administration group, week 4
  Median E2 concentrations during treatment: 10 pg/mL
[1]; 150-mg administration group, week 8
  Median E2 concentrations during treatment: 10 pg/mL
[1]; all groups (75, 150 mg)
  Improvement of average NRS for pelvic pain: tendency of improvement
[2]; 50 mg
  Percentage of patients who had menstruation during treatment (Yes): 72.4%
  Percentage of patients who had no menstruation during treatment (No): 27.6%
[2]; 100 mg
  Percentage of patients who had menstruation during treatment (Yes): 26.9%
  Percentage of patients who had no menstruation during treatment (No): 73.1%
[2]; 200 mg
  Percentage of patients who had menstruation during treatment (Yes): 3.6%
  Percentage of patients who had no menstruation during treatment (No): 96.4%
[2]; 50-mg administration group (29 patients)
  Number of cases where side effects associated with hypoestrogenism (hot flashes, headache, dizziness, hyperhidrosis) were developed: 9
[2]; 50-mg administration group
  Changes in average NRS for pelvic pain (regardless of menstruation) between the pre-treatment period and the time of the final assessment during treatment: −1.13
[2]; 100-mg administration group
  E2 concentrations during treatment: lower than 20 pg/mL
  Changes in average NRS for pelvic pain (regardless of menstruation) between the pre-treatment period and the time of the final assessment during treatment: −1.27
[2]; 100-mg administration group (26 patients)
  Number of cases where side effects associated with hypoestrogenism (hot flashes, headache, dizziness, hyperhidrosis) were developed: 12
[2]; 200-mg administration group
  E2 concentrations during treatment: lower than 20 pg/mL
  Changes in average NRS for pelvic pain (regardless of menstruation) between the pre-treatment period and the time of the final assessment during treatment: −1.33
[2]; 200-mg administration group (28 patients)
  Number of cases where side effects associated with hypoestrogenism (hot flashes, headache, dizziness, hyperhidrosis) were developed: 28
[2]; all groups (50, 100, 200 mg)
  E2 secretion during treatment: Suppression of E2 secretion was observed
[2]; all groups (50, 100, 200 mg) vs placebo
  Improvement of average NRS for pelvic pain as compared to the placebo group: Significant improvements
[2]; groups administered 50, 100, 200 mg vs placebo
  Temporal pain, observations by others, use rate of an analgesic agent, sizes of an ovarian chocolate cyst and the uterus, as compared to the placebo group: improved
[2]; groups with E2 concentration of 20 pg/mL and/or more during treatment
  Occurrence of side effects associated with hypoestrogenism: 28.2%
[2]; groups with E2 concentration of less than 20 pg/mL during treatment
  Occurrence of side effects associated with hypoestrogenism: 54.8%

## C[C@]12CCC3=C4CCC(=O)C=C4CC[C@H]3[C@@H]1CC[C@@]2(O)CC#N [Dienogest, dienogest]
[3]
  Incidence of atypical genital bleeding as a side effect: 71.9%

— patent US11382914B2, “Usage and dosage of therapeutic agents for endometriosis” (KISSEI PHARMACEUTICAL CO., LTD., priority 2016, dated 2022)
